From patent EP1431306A1, “A mechanism for hiv-1 entry into host cells and peptides inhibiting this mechanism” (priority 2002, dated 2004)

What was measured:
TAT+/gp120-LV = assay: Entry of TAT+/gp120-LV into C8166 cells after co-culture with U937/PINCO or U937/TAT cells; type: cell-based, HIV-1
Excerpt: This example is illustrated in Fig. 10. […] Said vector, as described in Example II, allows the expression of TAT, so that TAT is already present, as detailed described before, in the vector preparation and its amount is enhanced after the co-culture with U937/TAT cells. […] In particular, peptides with SEQ ID NO. 40 (RDKKKK), 42 (RDKKKV), 45 (KDKKEK), 47 (RDKKQK), 49 (RDKQQK), 50 (RDKVQK) revert the entry of more than 15%.
This example is illustrated in Fig. 11. […] 4 (CSFINT) and 44 (RDKVKK), where the entry experiment is performed with TAT+/gp120-LV, following 4 h co-culture of C8166 cells with U937/TAT cells. These two peptides are the ones derived from the Phage Display screening, and is here evaluated their ability of inhibit vector entry at concentrations lower than 100 µM (the concentration used in all the examples previously described). To verify if the integrity of the peptides is crucial for their activity, we have incubated the cells with said peptides in the presence of different protease inhibitors (aprotinin or a mix made by aprotinin, leupeptin, bestatin, pepstatin-A, AEBSF [4-(2-Aminoethyl) Benzenesulfonyl Fluoride Hydrochloride] and E-64 [(N-(N-(L-3-Transcarboxirane-2-Carbonyl)-L-Leucyl)-Agmatine)]). […] This example illustrates a way by which the power of said peptides can be improved.
Co-cultures and incubations with rTAT. […]
Transduction with HIV-1-derived lentivirus. Vector stocks were prepared by transient co-transfection of 293T cells with the following combinations of plasmids: pRRL.hPGK.GFP.SIN-18 + pCMV.DR8.2 + pMD.G (Naldini et al. (1996), supra) (VSV-G-LV) or pEnvHXB (Huang et al., J. Virol. 72 (1998), 8952-8960) (TAT+/gp120-LV); pRRL.hPGK.GFP.SIN-18 + pCMV.DR8.74 + pRSV-Rev ((Dull et al. (1998), supra) + pEnvHXB (TAT^-/gp120-LV). Vector concentration was determined by HIV-1 p24 Core profile ELISA following the manufacturer's instructions. The entry experiments were conducted on 10^5 cells per well of a 48-well plate in the presence of 8 µg/ml polybrene. The number of GFP-positive cells was analysed by FACS.

HIV-1 Ba-L = assay: Infection of PHA-stimulated PBMCs with wild type HIV-1 Ba-L (early viral transcripts by PCR); type: cell-based; conditions: 2 h at 37 °C, compared to 100 µM control peptide, SEQ ID NO.4 and 44: 100-50-10 µM, SEQ ID NO. 127: 1 µM-100-10 nM
Procedure: This example is illustrated in Fig. 12. […] 4 (CSFINT), 44 (RDKVKK) and the complete gp120 region SEQ ID NO.127 (CSFNITTEIRDKVKK), where the entry experiment is performed with two strains of HIV-1 on peripheral blood cells (PBMCs) derived from healthy donors. In particular, strain III B uses CXCR4 as a co-receptor (X4) and Ba-L uses CCR5 (R5).
In the graphs the percent inhibition of infection due to the peptides is shown, as compared to infection in the presence of 100 µM of a control peptide. PHA-stimulated PBMCs have been incubated with the peptides and immediately infected for 2 h at 37 °C. This incubation time is sufficient to evaluate virus entry, by detecting the presence of early viral transcripts into the cytoplasm of infected cells. The peptide concentrations are as follows: SEQ ID NO.4 and 44: 100-50-10 µM; SEQ ID NO. 127: 1 µM-100-10 nM. In Fig. 12A is represented the effect of the peptides on the basal infection of both viral strains, in Fig. 12B the effect of the peptides on the infection following incubation with rTAT 7 nM. A peptide-dependent inhibition of the basal infection by both HIV-1 strains is present already in the basal infection, reflecting the presence of TAT in the viral supernatants. […]
Infection with wild type HIV-1. […] Amplified DNA was analyzed by Southern blot hybridization with a ^32P-labeled probe, and quantified by densitometry. […]

| Substance | blocking of virus entry (TAT+/gp120-LV) (TAT+/gp120-LV; concentration lower than 100 µM, no protease inhibitors, 4 h co-culture with U937/TAT cells) | concentration at which the inhibitory effect is still visible (TAT+/gp120-LV; in the presence of protease inhibitors (aprotinin or mix), 4 h co-culture with U937/TAT cells) | inhibition of the basal infection (HIV-1 Ba-L) | reversion of TAT+/gp120-LV entry (TAT+/gp120-LV; 100 µM of the peptides, 4 h co-culture of C8166 cells with U937/PINCO or U937/TAT cells (effect potentiated by co-culture with U937/TAT)) |
| --- | --- | --- | --- | --- |
| CSFINT [SEQ ID NO. 4] | inefficient in blocking virus entry | 5 µM | ~70% | – |
| RDKKQQ [SEQ ID NO. 47] | – | – | – | more than 15% |
